The values that follow come from patent publication US20090203693A1, “THERAPEUTIC AGENT FOR LIVER FIBROSIS” (Eisai R & D Management Co., Ltd., priority 2006, published 2009).

Each structure is given as a SMILES string.

Assay [1] addresses T1, His6-DDR2 (cytoplasmic domain of human DDR2) (Homo sapiens, UniProt Q16832).
T1 construct: cytoplasmic domain of DDR2 having 6 histidines fused to the N-terminus thereof; made in house; host or cells: Sf9 insect cells (baculovirus, pFastBac-HT)
T1 sequence (Q16832 422-855 limits assumed): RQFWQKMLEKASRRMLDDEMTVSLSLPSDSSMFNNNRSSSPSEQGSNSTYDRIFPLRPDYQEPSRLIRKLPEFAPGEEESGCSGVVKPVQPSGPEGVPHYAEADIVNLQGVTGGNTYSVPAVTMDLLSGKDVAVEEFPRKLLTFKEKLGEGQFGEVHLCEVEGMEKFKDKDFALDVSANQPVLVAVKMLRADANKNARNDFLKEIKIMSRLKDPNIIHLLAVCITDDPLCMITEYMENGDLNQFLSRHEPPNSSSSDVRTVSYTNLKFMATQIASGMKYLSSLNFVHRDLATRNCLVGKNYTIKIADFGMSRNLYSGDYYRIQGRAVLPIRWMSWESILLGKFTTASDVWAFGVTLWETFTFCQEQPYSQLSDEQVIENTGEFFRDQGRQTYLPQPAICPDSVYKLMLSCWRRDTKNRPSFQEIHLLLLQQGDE
As to the kind of experiment: Determination of DDR2 kinase inhibitory activity (His6-DDR2 tyrosine autophosphorylation, HTRF). It is filed as biochemical. The following applies: cell free, ATP, room temperature 10 minutes, HTRF detection; read-out: IC50 (concentration of the test substance required for inhibiting His6-DDR2 kinase activity by 50%). From the text:
A DNA fragment of cytoplasmic domain of human DDR2 (SEQ ID NO: 1) was isolated by PCR method (Expand High Fidelity (purchased from Roche)) according to a conventional technique using human brain cDNA library (purchased from Clontech) as a template and SEQ ID NO:3: 5′-[…]-3′ and SEQ ID NO:4: 5′-[…]-3′ (purchased from JBioS) as primers. This DNA fragment was inserted into a baculovirus transplacement vector (pFastBac™-HT (purchased from Invitrogen)) to obtain a recombinant construct. Insect cells (Spodoptera frugiperda 9 (Sf9 cells)) were transfected with this recombinant construct, thereby preparing a DDR2 recombinant baculovirus solution. For preparation of a recombinant baculovirus, we referred to a standard textbook (Bac-to-Bac Baculovirus Expression System (Invitrogen)).
The above-described DDR2 recombinant Baculovirus solution (0.07 mL) was added to Sf9 cells (7×10^7 cells) suspended in 2.5% FBS-containing SF-900II medium (purchased from Invitrogen) and shake-cultured at 27° C. for 72 hours. Then, this DDR2 recombinant Baculovirus-infected cells were subjected to centrifugation at 1,600 rpm at 4° C. for 6 minutes and the supernatant was removed. The precipitated infected cells were suspended in 10 mL of ice-cold PBS and centrifuged at 1,600 rpm at 4° C. for 6 minutes to remove the supernatant. The precipitated infected cells were suspended in 5 mL of ice-cold lysis buffer (50 mM Tris-HCl (pH 8.5), 5 mM 2-mercaptoethanol, 100 mM KCl, 1 mM PMSA, 1% (v/v) NP40), and centrifuged at 10,000 rpm at 4° C. for 10 minutes to obtain the supernatant.
This supernatant was added to a Ni-NTA agarose column (1.5 mL (purchased from Qiagen)) equilibrated with 5 mL of buffer A (20 mM Tris-HCl (pH 8.5), 5 mM 2-mercaptoethanol, 500 mM KCl, 20 mM imidazole, 10% (v/v) glycerol). This column was sequentially washed with 10 mL of buffer A, 2 mL of buffer B (20 mM Tris-HCl (pH8.5), 5 mM 2-mercaptoethanol, 1 M KCl, 10% (v/v) glycerol) and 2 mL of buffer A. Subsequently, 4 mL of buffer C (20 mM Tris-HCl (pH 8.5), 5 mM 2-mercaptoethanol, 100 mM KCl, 100 mM imidazole, 10% (v/v) glycerol) was added to obtain an eluate. This eluate was placed in a dialysis membrane (purchased from Spectrum Medical Industries) and dialyzed against 1 L of dialysis buffer (20 mM Tris-HCl, 10% (v/v) glycerol, 1 mM dithiothreitol, 0.1 mM Na3VO4, 0.1 mM EGTA) at 4° C. overnight. After dialysis, a portion of the eluate was subjected to SDS-PAGE and an amount of the recombinant protein detected at a molecular weight of about 40 kDa (His6-DDR2 (cytoplasmic domain of DDR2 having 6 histidines fused to the N-terminus thereof)) by Coomassie brilliant blue staining was quantitated using BSA as a standard substance.
To each well of a 96-well black half plate (purchased from Corning, Product No: 3694), 20 ng of His6-DDR2, 35 μL of 25 mM Hepes solution (pH 7.4) containing 14 mM MgCl2 and a test substance dissolved in dimethylsulfoxide (at 100-fold dilution with 1% BSA; 5 μL) were added to a total amount of 40 μL. To this, […] of 50 μM ATP (purchased with Sigma) diluted with 25 mM Hepes solution was added and incubated at room temperature for 10 minutes. Thereafter, 10 μL of 50 mM EDTA (pH 8.0) (purchased from Wako Pure Chemical Industries) was added to terminate the kinase reaction.
Tyrosine-phosphorylated DDR2 was detected using homogeneous time resolved fluorescence (HTRF) technique (Analytical Biochemistry, 269, 94-104, 1999). Specifically, to each well of the reaction solutions mentioned above, 20 μL of 25 mM Hepes solution containing 1 M KF, 4.75 ng of europium cryptate-labeled anti-phosphorylated tyrosine antibody (Eu(K)-PT66) and 100 ng of XL665-labeled anti-His antibody (XL665-Anti-His) was added. This reaction solution was incubated at room temperature overnight. Thereafter, fluorescence intensities of each well at 665 nm and 620 nm were measured under irradiation at an excitation wavelength of 337 nm using Discovery HTRF microplate analyzer (from Packard). […]
(In general: TR-FRET usually uses a lanthanide donor and a delayed reading to cut background.)

Assay [2] relates to thioacetamide-induced hepatic fibrillization in Balb/cAnN female mice. As to the kind of experiment: Mouse models of thioacetamide-induced cirrhosis (Azan staining of liver sections). It is filed as in vivo. The following applies: orally once daily at 1 or 3 mg/kg, thioacetamide i.p. twice a week for five weeks. The method, then:
Thioacetamide (purchased from Tokyo Chemical Industry) was intraperitoneally administered at 150 mg/kg for the first week and 200 mg/kg for the next second to fifth weeks to Balb/cAnN female mice (purchased from Charles River Laboratories) twice a week. The test substance (Compound 3) was suspended in 0.5% methylcellulose aqueous solution and orally administered once daily at 1 or 3 mg/kg. Three days after the final thioacetamide administration, livers were removed from the mice and subjected to 10% neutral buffered formalin fixation followed by Azan staining (staining technique is described in “Medical Technology, supp., new technique for staining” (Ishiyaku Publisher, 1999)). The degree of fibrillization was examined by observation of the stained tissue sections. Experiments were conducted for a group without the administration of thioacetamide (6 examples), a group administered with thioacetamide but a test substance (3 examples), a group administered with Compound 3 at 1 mg/kg (6 examples) and a group administered with Compound 3 at 3 mg/kg (3 examples).

As to `COc1cc2nccc(Oc3ccc(NC(=O)Nc4nccs4)cc3)c2cc1OC` [Compound 3, N-(2-thiazole)-N′-(4-((6,7-dimethoxy-4-quinolinyl)oxy)phenyl)urea], the IC50 in assay [1] came to 0.18 nM. The “degree of hepatic fibrillization (observation of stained tissue sections)” value in assay [2] is recorded as “suppressed hepatic fibrillization in a dose-dependent manner”.
